Data: patent US12077503B2, “Substituted cyclic amides and their use as herbicides” (FMC CORPORATION, priority 2015, dated 2024)

Columns and labels:
Assay in all cases: Test C preemergence
Assay type in all cases: in vivo
Conditions in all cases: scale 0 to 100, 0 no effect, 100 complete control
[1] = system: ryegrass, Italian (Italian ryegrass, Lolium multiflorum)
How it was run: (§1)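 Preemergence: sow in loam-sand soil and treat. Postemergence: grow in peat-moss/vermiculite medium to 2–18 cm (1–4 leaves) and spray. Compound in non-phytotoxic solvent with surfactant; keep in greenhouse 13–15 d; score visually against controls, 0 (none) to 100 (full control).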

[2] = system: waterhemp (common waterhemp, Amaranthus rudis)
How it was run: as §1

[3] = system: blackgrass (Alopecurus myosuroides)
How it was run: as §1

[4] = system: Galium (catchweed bedstraw, Galium aparine)
How it was run: as §1

[5] = system: foxtail, giant (giant foxtail, Setaria faberii)
How it was run: as §1

[6] = system: pigweed (Amaranthus retroflexus)
How it was run: as §1

[7] = system: nutsedge, yellow (yellow nutsedge, Cyperus esculentus)
How it was run: as §1

[8] = system: soybean (Glycine max)
How it was run: as §1

[9] = system: ragweed (common ragweed, Ambrosia elatior)
How it was run: as §1

[10] = system: morningglory (Ipomoea coccinea)
How it was run: as §1

[11] = system: velvetleaf (Abutilon theophrasti)
How it was run: as §1

[12] = system: crabgrass, large (large crabgrass, Digitaria sanguinalis)
How it was run: as §1

[13] = system: corn (Zea mays)
How it was run: as §1

[14] = system: wheat (winter wheat, Triticum aestivum)
How it was run: as §1

[15] = system: oilseed rape (Brassica napus)
How it was run: as §1

[16] = system: barnyardgrass (Echinochloa crus-galli)
How it was run: as §1

## CN1CC(c2ccc(C(F)(F)F)c(F)c2)C(C(=O)Nc2ccccc2S(C)(=O)=O)C1=O (centres unmarked) [Compound 397]
[1]; 62 g ai/ha
  Plant response rating, Ryegrass, Italian: 60
[1]; 125 g ai/ha
  Plant response rating, Ryegrass, Italian: 60
[1]; 250 g ai/ha
  Plant response rating, Ryegrass, Italian: 60
[2]; 62 g ai/ha
  Plant response rating, Waterhemp: 90
[2]; 125 g ai/ha
  Plant response rating, Waterhemp: 98
[2]; 250 g ai/ha
  Plant response rating, Waterhemp: 95
[3]; 31 g ai/ha
  Plant response rating, Blackgrass: 55
[3]; 62 g ai/ha
  Plant response rating, Blackgrass: 70
[3]; 125 g ai/ha
  Plant response rating, Blackgrass: 90
[3]; 250 g ai/ha
  Plant response rating, Blackgrass: 90
[4]; 31 g ai/ha
  Plant response rating, Galium: 40
[4]; 62 g ai/ha
  Plant response rating, Galium: 80
[4]; 125 g ai/ha
  Plant response rating, Galium: 90
[4]; 250 g ai/ha
  Plant response rating, Galium: 90
[5]; 31 g ai/ha
  Plant response rating, Foxtail, Giant: 95
[5]; 62 g ai/ha
  Plant response rating, Foxtail, Giant: 95
[5]; 125 g ai/ha
  Plant response rating, Foxtail, Giant: 98
[5]; 250 g ai/ha
  Plant response rating, Foxtail, Giant: 98
[6]; 31 g ai/ha
  Plant response rating, Pigweed: 55
[6]; 62 g ai/ha
  Plant response rating, Pigweed: 90
[6]; 125 g ai/ha
  Plant response rating, Pigweed: 95
[6]; 250 g ai/ha
  Plant response rating, Pigweed: 95
[7]; 31 g ai/ha
  Plant response rating, Nutsedge, Yellow: 0
[7]; 62 g ai/ha
  Plant response rating, Nutsedge, Yellow: 10
[7]; 125 g ai/ha
  Plant response rating, Nutsedge, Yellow: 50
[7]; 250 g ai/ha
  Plant response rating, Nutsedge, Yellow: 70
[8]; 62 g ai/ha
  Plant response rating, Soybean: 0
[8]; 125 g ai/ha
  Plant response rating, Soybean: 0
[8]; 250 g ai/ha
  Plant response rating, Soybean: 20
[9]; 31 g ai/ha
  Plant response rating, Ragweed: 20
[9]; 62 g ai/ha
  Plant response rating, Ragweed: 75
[9]; 125 g ai/ha
  Plant response rating, Ragweed: 70
[9]; 250 g ai/ha
  Plant response rating, Ragweed: 70
[10]; 31 g ai/ha
  Plant response rating, Morningglory: 5
[10]; 62 g ai/ha
  Plant response rating, Morningglory: 55
[10]; 125 g ai/ha
  Plant response rating, Morningglory: 60
[10]; 250 g ai/ha
  Plant response rating, Morningglory: 70
[11]; 62 g ai/ha
  Plant response rating, Velvetleaf: 25
[11]; 125 g ai/ha
  Plant response rating, Velvetleaf: 30
[11]; 250 g ai/ha
  Plant response rating, Velvetleaf: 45
[12]; 31 g ai/ha
  Plant response rating, Crabgrass, Large: 98
[12]; 62 g ai/ha
  Plant response rating, Crabgrass, Large: 98
[12]; 125 g ai/ha
  Plant response rating, Crabgrass, Large: 100
[12]; 250 g ai/ha
  Plant response rating, Crabgrass, Large: 100
[13]; 31 g ai/ha
  Plant response rating, Corn: 25
[13]; 62 g ai/ha
  Plant response rating, Corn: 15
[13]; 125 g ai/ha
  Plant response rating, Corn: 60
[13]; 250 g ai/ha
  Plant response rating, Corn: 75
[14]; 62 g ai/ha
  Plant response rating, Wheat: 45
[14]; 125 g ai/ha
  Plant response rating, Wheat: 45
[14]; 250 g ai/ha
  Plant response rating, Wheat: 70
[15]; 31 g ai/ha
  Plant response rating, Oilseed Rape: 20
[15]; 62 g ai/ha
  Plant response rating, Oilseed Rape: 70
[15]; 125 g ai/ha
  Plant response rating, Oilseed Rape: 80
[15]; 250 g ai/ha
  Plant response rating, Oilseed Rape: 85
[16]; 31 g ai/ha
  Plant response rating, Barnyardgrass: 90
[16]; 62 g ai/ha
  Plant response rating, Barnyardgrass: 95
[16]; 125 g ai/ha
  Plant response rating, Barnyardgrass: 98
[16]; 250 g ai/ha
  Plant response rating, Barnyardgrass: 98
